Measurements as given in US20070010897A1, “Immunochemically modified and sterilized xenografts and allografts” (priority 2005, published 2007).

Assays:
Reovirus 3 = experiment: Viral inactivation test, Reovirus 3; settings: Reovirus 3 (NEnv./RNA); single process step (glutaraldehyde or E-beam 17.8 kGy)
Porcine Parvovirus = experiment: Viral inactivation test, Porcine Parvovirus; settings: Porcine Parvovirus (NEnv./DNA); single process step (glutaraldehyde or E-beam 17.8 kGy)

SMILES: O=CCCCC=O [Glutaraldehyde, glutaraldehyde]
- Log10 Reduction (Reovirus 3): 4.24 Log10
- Log10 Reduction (Porcine Parvovirus): 1.91 Log10
